Consider four compounds from patent US9974787B2, “Modified albumin microbubble” (National Taiwan University of Science and Technology, priority 2016, dated 2018).

Values joined by “and” are separate entries in the source; they are usually repeats but may differ in a detail not shown here. Equal entries are not always repeated.

The nature of data set [1]: Study of transdermal penetration depth (FITC). Conditions: 0.1 mg FITC, retained 6 hr on porcine ear skin. As to the method: Study of Transdermal Penetration Depth
Each group contained 0.1 mg FITC (fluorescein isothiocyanate), and was uniformly loaded onto the porcine ear skin with an area of 4.5 cm^2 and a thickness of 3 mm, sonicated by the 1-MHz ultrasound sonicator successively at power density of 3 W/cm^2, with each sonication period of 1 min. After sonication, the FITC (and the MBs) retained on the porcine ear skin for 6 hr, and was then washed away.
FIG. 7A-7C are bright-field images, and FIG. 7D-7F are dark-field fluorescent images.

Data set [2] in a line: Transdermal penetration study of Mx released by Mx-COL-MBs (Franz diffusion cell). The data set is classed as in vitro ADME, porcine. Conditions: Mx 0.3 mg/ml; for Amount of skin penetration (cumulative Mx penetration amount): 18th hour; for Amount of total penetration: 18 hours; for Amount of skin absorption: after 18 hours. On the procedure: Transdermal Penetration Study of Mx Released by Mx-COL-MBs
The procedures of the study included: interposing a piece of 3 mm-thick porcine ear skin between a donor cell and a receptor cell of the Franz diffusion cell at a temperature of 37±0.5° C. 1 ml of any one of the abovementioned 6 solutions was applied to the donor cell facing the stratum corneum (SC) side, enabling the MB, Mx, or Mx-COL-MB to penetrate the Parafilm on a bottom of the donor cell and reach the skin. Besides, the receptor cell facing the dermis side was filled with 12 ml of PBS at pH 7.4, accompanied with magnetic stirring at the rate of 600 rpm and 0.01% gentamicin to prevent bacterial degradation of the Mx during the penetration process. At the 0.5th hr, a 1-MHz ultrasound sonicator was positioned 3 mm from the top of the skin, and the skin was sonicated at a power density of 3 W/cm^2 for 1 min. At the time intervals of 0.5, 1, 2, 3, 4, 5, 6, 8, 12 and 18 hours, 1 ml of receptor solution sample filtered by 0.2-μm pores was extracted from the receptor cell to measure the Mx content in the receptor solution, with the receptor solution refilled each time with the same volume of PBS. After 18 hours, the porcine skin sample was washed and then homogenized with 1 ml of the receptor solution. The supernatant was centrifuged to acquire further supernatant to measure the absorbed amount of Mx in the porcine ear skin.

Another data set has as its system C57BL/6 mice. As to the kind of experiment: Study of animal hair growth (skin luminosity of shaved back). The data set is classed as in vivo. Conditions: for number of mice with significantly lower skin luminosity: day 10, Mx 0.3 mg/ml topical; for hair growth rate: day 16, Mx 0.3 mg/ml. As to the method:
Study of Animal Hair Growth
The study utilized 6-week-old C57BL/6 mice weighing 20-25 g, which were shaved at an area of about 10 cm^2 in the back at 8 weeks old, when all of the hair follicles were synchronized in the telogen phase. […] Among all groups, the US treatment was applied at 3 W/cm^2 for 1 min, and the concentration of Mx was 0.3 mg/ml (i.e. 0.5 ml/cm^2) in all groups. The change in skin luminosity of the shaved area was assessed using the Chroma Meter. The hair growth rate was calculated according to the following equation: Hair growth rate (%)=(L1−Ln)/L1×100%
where L1 is the luminosity index of the shaved area, and Ln is the luminosity index of the area at different time intervals.

Setting [3] is: with ultrasound treatment 3 W/cm^2, 1 min.
The mark [4] stands for this setting: with US treatment 3 W/cm^2, 1 min.

“fluorescein isothiocyanate [Comparative example 7]”: in data set [1] (with US treatment 1 MHz, 3 W/cm^2, 1 min), the “penetration depth of FITC” value turned out to be 405±23 μm.
As for `Nc1cc(N2CCCCC2)nc(N)[n+]1[O-]` [Comparative example 8, Minoxidil], in data set [2] (setting [3]), the “Amount of skin penetration (cumulative Mx penetration amount)” value was 113.0 ± 6.0 µg/mL and 113.01 ± 5.95 µg/mL; the “Amount of total penetration” value amounted to 126.04 ± 7.52 µg/mL; the “Amount of skin absorption” value came out at 33.02 ± 1.56 µg/mL. Moreover, in the data set with C57BL/6 mice (setting [4]), the “number of mice with significantly lower skin luminosity” value was 1 and the hair growth rate was determined as 64.5%.
Turning to “fluorescein isothiocyanate [Comparative example 6]”, the “penetration depth of FITC” value in data set [1] (without US treatment) came to 312±19 μm.
Turning to `Nc1cc(N2CCCCC2)nc(N)[n+]1[O-]` [Comparative example 4, Minoxidil], in data set [2] (without ultrasound treatment), the “Amount of skin penetration (cumulative Mx penetration amount)” value is 103.1 ± 0.5 µg/mL and 103.1 ± 0.51 µg/mL; the “Amount of total penetration” value is 155.54 ± 10.05 µg/mL; the “Amount of skin absorption” value amounted to 52.42 ± 9.55 µg/mL. Further, in the data set with C57BL/6 mice (without US treatment), the “number of mice with significantly lower skin luminosity” value was 1 and the hair growth rate was 45.5%.
